From US20210228545A1, “METHODS OF TREATING CONDITIONS RELATED TO THE S1P1 RECEPTOR” (Arena Pharmaceuticals, Inc., priority 2018, published 2021)

Experiments:
[1] = male Sprague-Dawley rats; cited from earlier work
[2] = target: T1, OATP1B1 (Homo sapiens, UniProt Q9Y6L6)
T1 sequence (Q9Y6L6 1-691): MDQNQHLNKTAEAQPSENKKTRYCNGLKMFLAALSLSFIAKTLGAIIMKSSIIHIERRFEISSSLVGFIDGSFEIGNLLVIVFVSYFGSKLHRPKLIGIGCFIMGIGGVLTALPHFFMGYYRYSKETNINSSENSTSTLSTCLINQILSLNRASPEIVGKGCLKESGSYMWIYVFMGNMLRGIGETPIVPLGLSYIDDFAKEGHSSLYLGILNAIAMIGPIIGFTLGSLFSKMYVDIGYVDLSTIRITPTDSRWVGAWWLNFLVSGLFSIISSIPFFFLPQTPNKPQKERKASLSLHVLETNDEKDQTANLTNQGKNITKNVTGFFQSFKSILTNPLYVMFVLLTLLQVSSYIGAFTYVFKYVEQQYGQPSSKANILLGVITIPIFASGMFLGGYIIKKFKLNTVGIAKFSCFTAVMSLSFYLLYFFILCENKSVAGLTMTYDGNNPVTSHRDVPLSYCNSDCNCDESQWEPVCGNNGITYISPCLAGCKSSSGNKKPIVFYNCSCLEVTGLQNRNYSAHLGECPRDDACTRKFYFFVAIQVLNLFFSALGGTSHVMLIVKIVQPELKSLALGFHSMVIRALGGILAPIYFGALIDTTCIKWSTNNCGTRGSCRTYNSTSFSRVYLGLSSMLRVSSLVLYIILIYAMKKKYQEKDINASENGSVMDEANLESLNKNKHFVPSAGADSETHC

[3] = target: T2, OATP1B3 (Homo sapiens, UniProt Q9NPD5); test: Transporter inhibition, HEK293 cells; format: in vitro ADME
T2 construct: expressed in transfected cells; host or cells: HEK293
T2 sequence (Q9NPD5 1-702): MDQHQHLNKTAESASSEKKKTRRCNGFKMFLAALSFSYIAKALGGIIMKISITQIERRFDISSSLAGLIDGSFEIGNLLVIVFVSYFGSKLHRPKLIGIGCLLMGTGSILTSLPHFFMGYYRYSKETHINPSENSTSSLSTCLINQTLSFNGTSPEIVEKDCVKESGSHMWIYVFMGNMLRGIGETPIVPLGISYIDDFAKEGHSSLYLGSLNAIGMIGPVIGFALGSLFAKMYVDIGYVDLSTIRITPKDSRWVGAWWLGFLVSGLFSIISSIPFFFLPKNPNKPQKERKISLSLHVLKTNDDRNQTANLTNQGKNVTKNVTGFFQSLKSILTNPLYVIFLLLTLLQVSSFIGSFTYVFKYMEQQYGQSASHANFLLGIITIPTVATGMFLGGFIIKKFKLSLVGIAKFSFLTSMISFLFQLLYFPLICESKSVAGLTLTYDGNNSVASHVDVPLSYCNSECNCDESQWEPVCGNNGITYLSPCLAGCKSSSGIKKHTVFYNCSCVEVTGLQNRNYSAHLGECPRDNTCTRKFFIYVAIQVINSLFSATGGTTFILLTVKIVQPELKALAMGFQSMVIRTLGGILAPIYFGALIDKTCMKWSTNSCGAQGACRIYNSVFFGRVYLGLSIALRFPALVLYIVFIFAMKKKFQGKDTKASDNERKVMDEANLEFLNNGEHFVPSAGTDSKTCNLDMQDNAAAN

[4] = target: T3, BCRP (Homo sapiens, UniProt Q9UNQ0); test: Transporter substrate evaluation, MDCKII-BCRP cells; format: in vitro ADME
T3 sequence (Q9UNQ0 1-655): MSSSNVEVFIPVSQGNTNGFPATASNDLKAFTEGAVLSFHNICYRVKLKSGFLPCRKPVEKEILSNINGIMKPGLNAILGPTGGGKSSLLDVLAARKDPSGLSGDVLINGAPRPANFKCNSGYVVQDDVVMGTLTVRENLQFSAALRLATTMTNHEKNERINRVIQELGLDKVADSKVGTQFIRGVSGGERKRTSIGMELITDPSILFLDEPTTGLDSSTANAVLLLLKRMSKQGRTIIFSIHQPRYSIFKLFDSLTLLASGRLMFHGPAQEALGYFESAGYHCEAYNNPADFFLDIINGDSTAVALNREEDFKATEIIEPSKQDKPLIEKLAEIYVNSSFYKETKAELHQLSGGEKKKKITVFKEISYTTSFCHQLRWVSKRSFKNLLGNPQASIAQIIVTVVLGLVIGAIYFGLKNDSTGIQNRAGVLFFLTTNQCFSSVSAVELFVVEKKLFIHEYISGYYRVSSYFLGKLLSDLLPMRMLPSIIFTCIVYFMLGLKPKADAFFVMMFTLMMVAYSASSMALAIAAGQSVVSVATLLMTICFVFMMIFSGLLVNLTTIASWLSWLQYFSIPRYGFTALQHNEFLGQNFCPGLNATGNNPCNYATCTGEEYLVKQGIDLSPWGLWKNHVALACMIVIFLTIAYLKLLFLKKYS

[5] = target: T1, OATP1B1; test: Transporter substrate evaluation, HEK293 cells; format: in vitro ADME; set-up: expressed in transfected cells; host or cells: HEK293; conditions: 1 and 10 μM
[6] = target: T4, P-gp (Homo sapiens, UniProt P08183)
[7] = target: T4, P-gp; test: Transporter inhibition, Caco-2 cells
[8] = target: T5, UGT1A1 (Homo sapiens, UniProt P22309); test: Direct inhibition of UGT activity in human liver microsomes; format: in vitro ADME; conditions: highest concentration tested (10 μM)
T5 construct: human liver microsomes from a pool of 200 individuals; from tissue; host or cells: human liver microsomes, pool of 200 individuals
Excerpt: (§1) Known metabolism-dependent and/or direct inhibitors of CYP and UGT enzymes were included as positive controls, as applicable.

[9] = target: T6, UGT1A6 (Homo sapiens, UniProt P19224); test: as above; format: in vitro ADME; conditions: highest concentration tested (10 μM)
T6 construct: human liver microsomes from a pool of 200 individuals; from tissue; host or cells: human liver microsomes, pool of 200 individuals
Excerpt: as §1

T4 sequence (P08183 whole entry): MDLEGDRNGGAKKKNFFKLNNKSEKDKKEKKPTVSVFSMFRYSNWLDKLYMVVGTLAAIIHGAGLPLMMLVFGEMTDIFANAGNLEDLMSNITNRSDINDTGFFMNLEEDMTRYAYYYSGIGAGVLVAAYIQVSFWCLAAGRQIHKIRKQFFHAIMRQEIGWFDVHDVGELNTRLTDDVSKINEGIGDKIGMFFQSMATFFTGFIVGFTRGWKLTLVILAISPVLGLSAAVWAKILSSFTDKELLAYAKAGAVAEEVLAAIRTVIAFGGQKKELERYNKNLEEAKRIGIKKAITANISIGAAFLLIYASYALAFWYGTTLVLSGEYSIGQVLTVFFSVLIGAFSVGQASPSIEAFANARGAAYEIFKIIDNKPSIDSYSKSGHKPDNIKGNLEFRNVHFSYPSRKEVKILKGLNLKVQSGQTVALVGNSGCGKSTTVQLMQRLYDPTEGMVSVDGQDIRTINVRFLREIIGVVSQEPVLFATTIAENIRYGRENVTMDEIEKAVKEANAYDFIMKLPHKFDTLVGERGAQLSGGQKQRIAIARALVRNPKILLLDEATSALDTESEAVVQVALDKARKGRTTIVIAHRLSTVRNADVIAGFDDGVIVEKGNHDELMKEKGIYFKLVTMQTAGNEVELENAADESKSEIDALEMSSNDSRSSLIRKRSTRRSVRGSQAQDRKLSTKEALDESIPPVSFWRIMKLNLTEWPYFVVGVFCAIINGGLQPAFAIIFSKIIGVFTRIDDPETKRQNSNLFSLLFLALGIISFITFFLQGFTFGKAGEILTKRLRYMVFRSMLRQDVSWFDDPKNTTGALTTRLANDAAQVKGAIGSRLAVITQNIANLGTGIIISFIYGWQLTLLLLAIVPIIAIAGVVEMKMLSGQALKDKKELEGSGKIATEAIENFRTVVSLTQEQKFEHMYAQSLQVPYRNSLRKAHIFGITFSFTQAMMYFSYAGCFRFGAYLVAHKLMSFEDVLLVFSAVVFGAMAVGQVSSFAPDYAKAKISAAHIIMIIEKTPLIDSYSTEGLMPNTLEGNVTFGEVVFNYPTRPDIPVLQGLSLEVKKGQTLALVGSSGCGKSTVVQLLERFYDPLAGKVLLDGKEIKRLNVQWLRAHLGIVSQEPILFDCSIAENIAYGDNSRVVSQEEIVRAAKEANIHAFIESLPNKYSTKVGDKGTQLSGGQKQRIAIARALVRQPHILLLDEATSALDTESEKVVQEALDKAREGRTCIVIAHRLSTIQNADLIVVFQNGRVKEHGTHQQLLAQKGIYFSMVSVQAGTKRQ
T6 sequence (P19224 27-532): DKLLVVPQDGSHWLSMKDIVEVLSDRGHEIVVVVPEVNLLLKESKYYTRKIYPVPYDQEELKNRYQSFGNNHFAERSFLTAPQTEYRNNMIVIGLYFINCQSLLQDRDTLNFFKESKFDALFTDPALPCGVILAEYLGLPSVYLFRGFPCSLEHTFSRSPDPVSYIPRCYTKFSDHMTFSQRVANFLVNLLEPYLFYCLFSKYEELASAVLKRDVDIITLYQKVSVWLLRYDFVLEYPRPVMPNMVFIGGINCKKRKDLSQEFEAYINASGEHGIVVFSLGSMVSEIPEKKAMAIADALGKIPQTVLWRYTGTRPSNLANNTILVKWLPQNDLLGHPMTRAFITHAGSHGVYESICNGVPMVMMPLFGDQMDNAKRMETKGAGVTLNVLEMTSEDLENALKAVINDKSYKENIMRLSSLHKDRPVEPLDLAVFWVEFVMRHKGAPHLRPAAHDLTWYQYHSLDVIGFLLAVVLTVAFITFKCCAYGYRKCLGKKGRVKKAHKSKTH
T5 sequence (P22309 26-533): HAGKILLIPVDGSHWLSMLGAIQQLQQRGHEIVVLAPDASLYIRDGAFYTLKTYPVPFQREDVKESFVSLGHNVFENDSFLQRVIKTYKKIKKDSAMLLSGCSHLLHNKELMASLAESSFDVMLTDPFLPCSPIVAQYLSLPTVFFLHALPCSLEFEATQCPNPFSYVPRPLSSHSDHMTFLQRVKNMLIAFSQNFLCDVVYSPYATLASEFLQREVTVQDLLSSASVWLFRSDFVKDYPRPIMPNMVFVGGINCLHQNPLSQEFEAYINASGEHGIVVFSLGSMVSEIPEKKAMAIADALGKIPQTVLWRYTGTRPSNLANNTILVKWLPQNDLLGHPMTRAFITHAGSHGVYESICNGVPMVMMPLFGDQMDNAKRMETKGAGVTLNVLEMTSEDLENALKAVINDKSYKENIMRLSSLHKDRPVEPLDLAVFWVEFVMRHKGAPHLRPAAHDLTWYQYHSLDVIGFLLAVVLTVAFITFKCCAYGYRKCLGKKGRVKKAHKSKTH

In the case of `O=C(O)C[C@H]1CCc2c1[nH]c1ccc(OCc3ccc(C4CCCC4)c(C(F)(F)F)c3)cc21` [Compound 1, (R)-2-(7-(4-cyclopentyl-3-(trifluoromethyl)benzyloxy)-1,2,3,4-tetrahydrocyclopenta[b]indol-3-yl)acetic acid], the Bradycardia [1] is listed as “no or substantially no bradycardia”, the IC50 [2] is listed as about 10 µM and the “Reduction of uptake rate of estradiol-17β-glucuronide into OATP1B3-expressing cells (inhibition)” value ([3]; 1 and 10 μM) is listed as “less than 50%”. The IC50 ([3]; HEK293 cells, [3H]-estradiol-17β-glucuronide (50 nM), 1 and 10 μM tested) was over 10 µM, the “Efflux ratio of Compound 1 across MDCKII-BCRP cells” value ([4]; 1 μM, absence and presence of Ko143 (1 μM)) was “less than two” and the efflux ratio at 10 μM ([4]; human, 10 μM) was 7.36. The recovery ([4]; human, MDCKII-BCRP assay) was 27 to 48%, the “Potential substrate of OATP1B1” value ([5]; HEK293 cells) was “not a substrate of OATP1B1 and not a substrate and No” and the “Uptake ratio into OATP1B1-expressing cells” value ([5]; absence and presence of rifampin) was “less than two”. The IC50 [6] was about 100 µM, the P-gp inhibition ([7]; 10 μM Compound 1) was “no P-gp inhibition” and the “Reduction of efflux ratio of digoxin (10 μM) across Caco-2 cells” value ([7]; 100 μM Compound 1) was 50%. The inhibition at 10 µM [8] was at most 28% and the inhibition at 10 µM [9] was at most 48%.
